Test results taken from PMC10307885, “A Phase 1/2 trial of SRA737 (a Chk1 inhibitor) administered orally in patients with advanced cancer” (British Journal of Cancer, 2023).
“And” between values parts separate entries of the source, which are not always exact repeats. Equal values may be shown once. Read-outs that look alike come from different tables or passages of the source.

Legend:
[1] = system: patients with advanced cancer; details: in combination with low-dose gemcitabine; anogenital, cervical, high-grade serous ovarian, rectal and small cell lung cancer; cited from earlier work
[2] = system: patients with advanced solid tumours; assay: Cardiac safety: ECG (QTcF), troponin, echocardiogram; type: in vivo, human
Protocol: Cardiac assessments included centrally-assessed serial ECGs in Cycle 1 used for evaluation of QTc. In addition, locally-read ECGs for safety assessment were also available for central assessment where clinically indicated. Troponin T or I assessments and echocardiogram were locally assessed.
(§1) Safety and response variables were summarized using descriptive statistics and PK parameters were determined using non-compartmental methods. A concentration-effect model was used to evaluate the relationship between plasma SRA737 concentrations and the mean change from baseline in QT interval corrected for heart rate using Fridericia’s formula (QTcF) in time-matched ECG measurements and PK samples collected on Day −7 to Day −4 and during Cycle 1.

[3] = Preliminary in vitro solubility studies of SRA737 citrate drug product; type: physicochemical; details: over the physiological range
[4] = Plasma SRA737 pharmacokinetics (LC-MS assay, non-compartmental methods); type: in vivo, human; details: for Cmax / AUC(0-t) / Tmax / Vd/F / half-life: human, oral; for AUC(0-t): read-out: AUC0-24; for Tmax / Vd/F / half-life: plasma
Protocol: Serial sampling of blood for PK assessment was conducted before and after dosing with single-agent SRA737 (9 time points over 48 h) on Day −7 to Day −4 and on Cycle 1 Day 22; in addition, samples were drawn pre-dose on Days 1, 8, and 15 of Cycle 1, and pre-dose on Day 1 of each subsequent cycle. Plasma SRA737 concentrations were quantified using a fully validated liquid chromatography-mass spectrometry assay with a lower limit of quantitation of 5 ng/ml as previously described.
as §1

Chk1 = system: Chk1; parameters: method as in printed; details: previously shown in preclinical experiments; ref not given; cited from earlier work
[5] = 600 mg, repeat doses, N 7, plasma, mean ± standard deviation
[6] = 800 mg, repeat doses, N 31, plasma, mean ± standard deviation
[7] = 1000 mg, repeat doses, N 16, plasma, mean ± standard deviation
[8] = single SRA737 dose, at or above the dose level of 300 mg QD

Compound: N#Cc1cnc(Nc2cc(NC[C@H]3CNCCO3)c(C(F)(F)F)cn2)cn1 [SRA737, (R)-5-((4-((morpholin-2-ylmethyl)amino)-5-(trifluoromethyl)pyridin-2-yl)amino)pyr azine-2-carbonitrile]
- RECIST tumour responses [1]: RECIST partial tumour responses were observed
- largest LS mean ΔQTcF ([2]; 800 mg QD, 2 h post dose on Cycle 1 Day 22, 90% confidence interval 11.53 to 22.13): 16.8 ms
- cases of acute coronary syndrome (cardiac SAE) ([2]; 800 mg SRA737): 1 case
- cases of asymptomatic myocardial infarction (cardiac SAE) ([2]; 800 mg SRA737): 1 case
- cases of asymptomatic QT prolongation (cardiac SAE) ([2]; 1000 mg SRA737): 1 case
- cases of cardiomyopathy (cardiac SAE) ([2]; 1000 mg SRA737): 1 case
- cardiac serious adverse events evaluated to be possibly related to SRA737 ([2]; all doses): Four
- subjects with treatment-emergent QTcF values >500 ms or ΔQTcF of >60 ms ([2]; central ECG monitoring): no individual subjects
- patients with > 10% absolute drop from baseline resulting in abnormal left ventricular ejection fraction ([2]; echocardiogram data, 83 evaluable patients, other than cardiomyopathy and myocardial infarction cases): no additional patients
- drop of left ventricular ejection fraction, one patient ([2]; echocardiogram performed outside the study): from 65 to 20–25%
- effects on heart rate, PR interval, or QRS duration ([2]; studied doses): no clinically relevant effects
- proarrhythmic potential ([2]; therapeutic doses): no indication that SRA737 is proarrhythmic
- pH-dependent solubility [3]: minimal to moderate pH-dependent solubility
- Systemic exposure (Cmax and AUC) between dose levels ([4]; 600 mg vs 1000 mg dose levels): tended to be comparable
- CL/F [4, 5]: 26.9 ± 2.85 L/h
- Cmin [4, 5]: 230 ± 123 ng/mL
- Exposure relative to minimum effective concentration extrapolated from preclinical models ([4]; 800 mg QD and 1000 mg QD): exceeded the minimum effective concentration
- Cmin ([4]; 800 mg QD, repeat doses, N 31, plasma, mean ± standard deviation): 312 ng/mL and 312 ± 166 ng/mL
- CL/F [4, 6]: 38.0 ± 22.2 L/h
- CL/F [4, 7]: 39.7 ± 9.20 L/h
- Cmin [4, 7]: 499 ± 185 ng/mL
- Cmax [4, 5]: 2470 ± 328 ng/mL
- AUC(0-t) [4, 5]: 22100 ± 2450 ng·h/mL
- Cmax [4, 6]: 2480 ± 679 ng/mL
- AUC(0-t) [4, 6]: 24700 ± 8580 ng·h/mL
- Cmax [4, 7]: 2490 ± 666 ng/mL
- AUC(0-t) [4, 7]: 27200 ± 9210 ng·h/mL
- Tmax ([4]; 600 mg, repeat doses on C1D8, C1D22, C2D8, C2D15 or C2D22, N 7, plasma, median (minimum-maximum), read-out: tmax): 2 h
- Vd/F ([4]; 600 mg, repeat doses, N 7, plasma, mean ± standard deviation, read-out: Vd/F): 320 ± 61.1 L
- half-life ([4]; 600 mg, repeat doses, N 7, plasma, mean ± standard deviation, read-out: t½ (converted)): 8.22 ± 1.27 h
- Tmax ([4]; 800 mg, repeat doses on C1D8, C1D22, C2D8, C2D15 or C2D22, N 31, plasma, median (minimum-maximum), read-out: tmax): 2 h
- Vd/F ([4]; 800 mg, repeat doses, N 31, plasma, mean ± standard deviation, read-out: Vd/F): 454 ± 299 L
- half-life ([4]; 800 mg, repeat doses, N 31, plasma, mean ± standard deviation, read-out: t½ (converted)): 8.25 ± 1.17 h
- Tmax ([4]; 1000 mg, repeat doses on C1D8, C1D22, C2D8, C2D15 or C2D22, N 16, plasma, median (minimum-maximum), read-out: tmax): 2 h
- Vd/F ([4]; 1000 mg, repeat doses, N 16, plasma, mean ± standard deviation, read-out: Vd/F): 477 ± 87 L
- half-life ([4]; 1000 mg, repeat doses, N 16, plasma, mean ± standard deviation, read-out: t½ (converted)): 8.45 ± 1.06 h
- half-life ([4]; 1000 mg, repeated doses of 600, 800 and 1000 mg QD, read-out: Estimated elimination half-life (t½) values, range): 6.23 to 10.4 h
- Tmax ([4]; 1000 mg, repeated doses of 600, 800 and 1000 mg QD, read-out: Tmax, generally occurred): 2 to 4 h
- Tmax ([4]; 1000 mg, repeated doses of 600, 800 and 1000 mg QD, read-out: Tmax, ranged): 1 to 6 h
- Vd/F ([4]; 1000 mg, repeated doses of 600, 800 and 1000 mg QD, read-out: individual apparent volume of distribution (Vd/F) values, range): 215 to 1590 L
- time plasma concentration of 100 nM (37.9 ng/mL) was achieved, all patients [4, 8]: at least 24 h
- time plasma concentration of 100 nM (37.9 ng/mL) was achieved, majority of patients [4, 8]: up to 48 h
- minimally effective concentration to inhibit Chk1 (Chk1): 100 nM and 37.9 ng/mL
